Experiment [1] concerns MUC1 expression in MCF10A cells. In words: MUC1 expression by immunoblot of whole-cell lysates after stimulation. It counts as cell-based. The method, then:
FIG. 2A is a pair of photographs of immunoblots depicting the induction of MUC1 expression following heregulin (HRG) treatment. MCF10A cells were cultured without (“0”) and with HRG (20 ng/mL) for 24 (“24”) and 48 (“48”) hours. Cells were harvested at the indicated time points and lysed for western blot analysis. Whole-cell lysates were subjected to sodium dodecyl sulfate polyacrylamide gel electrophoresis (SDS-PAGE) under reducing conditions and proteins were detected (immunoblotted, “IB”) using antibodies specific for MUC1-C and β-actin (top and bottom photographs, respectively). The relative positions (e.g., the molecular weights) of the proteins are reported in kilodaltons (kDa) and indicated to the left of each of the immunoblots (e.g., 25 kDa or 45 kDa). “HRG” indicates treatment with heregulin.
FIG. 2C is a photograph of an immunoblot depicting the induction of MUC1 expression following IL-6 treatment. MCF10A cells were treated without (“0”) and with IL-6 (20 ng/mL) and then cultured at 37° C. for 24 (“24”) and 48 (“48”) hours. Cells were harvested at the indicated time points and lysed for western blot analysis. Whole-cell lysates were subjected to SDS-PAGE under reducing conditions and proteins were detected (immunoblotted, “IB”) using antibodies specific for MUC1-C. The relative positions (e.g., the molecular weights) of the proteins are reported in kilodaltons (kDa) and indicated to the left of the immunoblot. “IL-6” indicates IL-6 treatment.
Heregulin treatment of cells results in (i) activation of ErbB2, ErbB3, and ErbB4 and (ii) induction of the formation of complexes between these receptors and MUC1. To assess if MUC1 is regulated by heregulin in normal cells, the induction of MUC1 expression by heregulin treatment was assessed in the immortalized, but non-cancer breast cell line MCF10A. […] As a control for loading, β-actin was detected using anti-β-actin (Sigma, St. Louis, Mo.). […]

The target of the next experiment is GST-STAT3 (Homo sapiens, UniProt P40763). In words: In vitro GST pull-down binding assay. Conditions: purified His-tagged MUC1-CD, GST as control, immunoblot. The protocol: The binding of MUC1 to HSF1 could be direct or indirect, for example, through a third protein. To determine if the interaction between MUC1 and HSF1 is a direct, physical interaction, in vitro binding assays was performed. GST- and GST-STAT3 polypeptides were incubated with purified His-tagged MUC1-CD (similar to GST-HSF1-His-MUC1 experiments described above). The protein mixtures were then incubated with glutathione beads, which bind to the GST proteins and associated binding partners if present. The glutathione bead adsorbates were washed and immunoblotted with antibodies specific for His tags or to MUC1-C (as described above).
Chain of GST-STAT3 (P40763 whole entry): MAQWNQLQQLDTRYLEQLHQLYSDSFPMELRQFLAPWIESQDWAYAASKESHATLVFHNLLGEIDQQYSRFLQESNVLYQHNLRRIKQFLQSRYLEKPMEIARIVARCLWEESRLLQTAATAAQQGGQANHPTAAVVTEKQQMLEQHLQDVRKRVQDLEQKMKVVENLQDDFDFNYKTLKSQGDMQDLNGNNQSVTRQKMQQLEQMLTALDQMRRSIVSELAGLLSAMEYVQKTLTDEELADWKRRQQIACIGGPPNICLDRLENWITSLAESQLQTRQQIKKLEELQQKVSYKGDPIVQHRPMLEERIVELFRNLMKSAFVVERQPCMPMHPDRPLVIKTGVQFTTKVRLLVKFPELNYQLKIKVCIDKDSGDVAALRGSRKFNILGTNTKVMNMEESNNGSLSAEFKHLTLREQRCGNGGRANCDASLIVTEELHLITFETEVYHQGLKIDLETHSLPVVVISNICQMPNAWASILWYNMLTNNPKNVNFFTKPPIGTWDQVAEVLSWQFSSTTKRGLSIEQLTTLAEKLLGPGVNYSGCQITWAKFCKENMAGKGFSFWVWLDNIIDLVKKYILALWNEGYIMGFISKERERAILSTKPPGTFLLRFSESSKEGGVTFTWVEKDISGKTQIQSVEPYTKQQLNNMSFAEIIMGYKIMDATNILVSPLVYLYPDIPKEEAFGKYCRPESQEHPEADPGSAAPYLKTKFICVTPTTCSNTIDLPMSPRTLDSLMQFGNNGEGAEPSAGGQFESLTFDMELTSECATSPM

In the case of “IL-6: inflammatory cytokine IL-6 (R&D Systems) that activates STAT3 through the Janus kinases”, the MUC1 expression entry is “induce both STAT3 phosphorylation (activation) and MUC1 expression” in experiment [1] (0.1% serum overnight, 20 ng/mL IL-6, expected result); “induces MUC1 expression” in experiment [1] (IL-6 20 ng/mL, 24 and 48 hours (FIG. 2C)).

B1: His-tagged MUC1: purified His-tagged MUC1 cytoplasmic domain (MUC1-CD, SEQ ID NO:2) (protein, listed as Homo sapiens)
chain: CQCRRKNYGQLDIFPARDTYHPMSEYPTYHTHGRYVPPSSTDRSPYEKVSAGNGGSSLSYTNPAVAAASANL
modifications: His tag
For the molecule B1, the “binding to GST-STAT3 (glutathione bead adsorbates)” value with GST-STAT3 is “present in GST-STAT3 adsorbates but not GST-adsorbates”.

B2: HRG: heregulin (HRG) (Calbiochem-Novabiochem), ligand activating ErbB2, ErbB3 and ErbB4 (protein, listed as Homo sapiens)
chain: MEIYSPDMSEVAAERSSSPSTQLSADPSLDGLPAAEDMPEPQTEDGRTPGLVGLAVPCCACLEAERLRGCLNSEKICIVPILACLVSLCLCIAGLKWVFVDKIFEYDSPTHLDPGGLGQDPIISLDATAASAVWVSSEAYTSPVSRAQSESEVQVTVQGDKAVVSFEPSAAPTPKNRIFAFSFLPSTAPSFPSPTRNPEVRTPKSATQPQTTETNLQTAPKLSTSTSTTGTSHLVKCAEKEKTFCVNGGECFMVKDLSNPSRYLCKCPNEFTGDRCQNYVMASFYSTSTPFLSLPE
In the case of B2, the MUC1 protein expression result in experiment [1] (20 ng/mL HRG, anti-MUC1-C immunoblot (FIG. 2A)) is on record as “increase in MUC1 protein expression”.

The values above are taken from US7972870B2, “Methods and compositions relating to the regulation of MUC1 by HSF1 and STAT3” (Dana-Farber Cancer Institute, Inc., priority 2007, dated 2011).
